The record followed here is patent publication US6376510B1, “Neuromuscular relaxants” (Newlaxant LLC, priority 1997, dated 2002).

Each structure is given as a SMILES string. Where two headings read alike, the source gives them in different places.

One data set relates to rabbits. The data set can be described thus: In vivo neuromuscular block and cardiovascular side effects, rabbit (Example 8, Table 7). The following applies: for ED50: intravenous dose causing 50% neuromuscular block; for RI (recovery index): spontaneous recovery, 25-75% neuromuscular response; for Onset: time to 80-85% neuromuscular block.
Another data set deals with anesthetized monkeys. As to the kind of experiment: In vivo neuromuscular block and cardiovascular side effects, monkey (Example 8, Table 6). The following applies: for ED50: intravenous dose causing 50% neuromuscular block; for RI (recovery index): spontaneous recovery, 25-75% neuromuscular response; for Onset: time to 80-85% neuromuscular block. An excerpt: Both electromyographic and mechanomyographic responses can be quantified.
The techniques described under a) and b) were employed in other species as needed with the modification that juvenile pigs were initially anesthetized with inhalation of halothane (Table 5) and monkeys were initially sedated with intramuscular ketamine injections prior to inducing and maintaining general anesthesia using pentobarbital and propofol administered intravenously (Table 6).

For data set [1], the system named is anesthetized juvenile pigs. The data set can be described thus: animal or person. In kind it is in vivo. The following applies: pig; for VB (vagal block) / ΔBP (change in arterial blood pressure) / ΔH (change in heart rate): in vivo; for ED50: intravenous dose causing 50% neuromuscular block; for RI (recovery index): spontaneous recovery, 25-75% neuromuscular response; for Onset: time to 80-85% neuromuscular block. An outline of the steps: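 Electromyographic and mechanomyographic responses quantified. Monkeys sedated with intramuscular ketamine, then general anesthesia with intravenous pentobarbital and propofol; juvenile pigs induced with inhaled halothane.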

Data set [2] concerns anesthetized rats (evoked responses of anterior tibial muscle). As to the kind of experiment: In vivo neuromuscular block and cardiovascular side effects, anesthetized rat (Example 8, Table 3). The following applies: for Onset: time to 80-85% neuromuscular block. The procedure, abridged:
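Pentobarbital-anesthetized (i.p.), ventilated adult male rats given saline-dissolved agents i.v.; anterior tibial EMG responses to supramaximal single or train-of-four sciatic/peroneal stimuli, plus 0.1 or 1 Hz stimulation. Doses for 50%, 80%, 90% block derived. Onset: minutes to 80-85% block; RI: 25-75% spontaneous recovery; vagal block, heart rate and blood pressure changes (%) at 80-85% blocking dose.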

Data set [3] relates to anesthetized cats (evoked responses of anterior tibial muscle). The data set can be described thus: animal or person. The following applies: for RI (recovery index): spontaneous recovery, 25-75% neuromuscular response; for Onset: time to 80-85% neuromuscular block. The source says:
a) Adult, male albino rats were anesthetized with pentobarbital injected intraperitoneally. The trachea was cannulated for artificial respiration via a small animal respirator. The carotid artery was cannulated for recording blood pressure via a transducer and heart rate by a cardiotachograph on a polygraph. One external jugular vein was cannulated for i.v. drug administration. Neuromuscular function was monitored by electromyography, recording evoked responses from the anterior tibial muscle as a result of supramaximal nerve stimuli consisting of single or “train-of-four” rectangular pulses of 0.1-0.2 msec duration every 10-12 seconds, delivered to the sciatic or common peroneal nerve by a laboratory nerve stimulator. Another mode of stimulation included repeated single stimuli delivered at 0.1 Hz or 1 Hz. […] The agents were dissolved in physiologic saline and injected intravenously at appropriate time intervals. The intensity, onset, and duration of neuromuscular block and its type were determined with each agent. Through administering several doses, the doses corresponding to 50%, 80% and 90% neuromuscular block were determined. All agents were compared with selected standard neuromuscular blocking compounds, e.g. succinylcholine, pancuronium, mivacurium, or rocuronium.
Onset=time in minutes to 80-85% neuromuscular block.
RI=recovery index, minutes, spontaneous recovery, 25-75% neuromuscular response.
VB=vagal block, %, at 80-85% neuromuscular blocking dose.
ΔHR=change in heart rate, %, at 80-85% neuromuscular blocking dose.
ΔBP=change in arterial blood pressure, %, at 80-85% neuromuscular blocking dose.
b) Adult cats were anesthetized with a mixture of 70 mg/kg alpha chloralose and 0.5 g/kg ethylurethane intraperitoneally. One thigh was fixed in a vertical position by means of a pin at the lower end of the femur. Needle electrodes were placed on the sciatic or the common peroneal nerve. A tendon of the anterior tibial muscle was attached to a force transducer and the muscle responses evoked, as described under a), were recorded. Both electromyographic and mechanomyographic responses can be quantified. Blood pressure and heart rate changes were recorded from appropriately cannulated arteries via a blood pressure transducer and cardiotachograph.

[4] abbreviates: rat, intravenous dose causing 50% neuromuscular block.
The mark [5] stands for this setting: rat, spontaneous recovery, 25-75% neuromuscular response.
[6] abbreviates: rat, at 80-85% neuromuscular blocking dose.
Where [7] appears, read: at 80-85% neuromuscular blocking dose.
Setting [8] is: cat, at 80-85% neuromuscular blocking dose.

`CC(=O)Oc1ccc(C[N+]2(C)C3CCCC2CC(OC(=O)CCCCCC(=O)OC2CC4CCCC(C2)[N+]4(C)Cc2ccc(OC(C)=O)c(OC(C)=O)c2)C3)cc1OC(C)=O.[Br-].[Br-]` (stereo not shown) [bis[N-(3,4-diacetoxybenzyl)granataninium-3-yl]pimelate dibromide]: the “ΔBP (change in arterial blood pressure)” value in the data set on rabbits (in vivo) was determined as 0%; with anesthetized monkeys (in vivo) it was 0%; in data set [1], 0%; in data set [2] (rat, in vivo), 0%. Also, the “ΔH (change in heart rate)” value in the data set on rabbits (in vivo) was determined as 0%; in the data set with anesthetized monkeys (in vivo), 0%; in data set [1] it was 0%; in data set [2] (rat, in vivo), 0%. The ED50 (in general, the dose that gives a 50% effect, or the effect in half of the subjects) was 0.266 mg/kg in the data set on rabbits, 0.15 mg/kg in the data set on anesthetized monkeys, 0.193 mg/kg in data set [1] and 0.175 mg/kg in data set [2] (setting [4]). The “RI (recovery index)” value in the data set on rabbits came out at 0.6 min; in the data set on anesthetized monkeys, 0.55 min; in data set [1], 1 min; in data set [2] (setting [5]), 0.4 min. In addition, the Onset in the data set on rabbits is 0.72 min; in the data set with anesthetized monkeys, 1.2 min; in data set [1], 0.7 min; in data set [2] (rat) it was 0.45 min. Besides, the “VB (vagal block)” value is listed as 48% in data set [1] and 0% in data set [2] (rat, in vivo).

In the case of `CC(=O)Oc1ccc(C[N+]2(C)C3CCC2CC(OC(=O)C2C4C=CC(C4)C2C(=O)OC2CC4CCC(C2)[N+]4(C)Cc2ccc(OC(C)=O)c(OC(C)=O)c2)C3)cc1OC(C)=O.[Br-].[Br-]` (stereo not drawn) [bis[N-(3,4-diacetoxybenzyl)tropanium-3α-yl]trans-3,6-endomet] [bis[N-(3,4-diacetoxybenzyl)tropanium-3α-yl]trans-3,6-endomethylene-1,2,3,6-tetrahydrophthalate dibromide], the “ΔBP (change in arterial blood pressure)” value in the data set with rabbits (in vivo) is listed as 0%; in the data set on anesthetized monkeys (in vivo), 0%; in data set [1], 0%; in data set [3] (in vivo), −30%; in data set [2] (setting [6]), 0%. The “ΔH (change in heart rate)” value in the data set with rabbits (in vivo) was 0%; in the data set with anesthetized monkeys (in vivo) it was 0%; in data set [1], 0%; in data set [3] (in vivo), −12%; in data set [2] (setting [6]) it was 0%. The 50% effective dose (ED50) in the data set with rabbits was found to be 0.096 mg/kg; in the data set with anesthetized monkeys it was 0.06 mg/kg; in data set [1] it was 0.197 mg/kg; in data set [3] (cat, intravenous dose causing 50% neuromuscular block), 0.12 mg/kg; in data set [2] (setting [4]), 0.084 mg/kg. For the same compound, the “RI (recovery index)” value turned out to be 0.7 min in the data set with rabbits; 0.65 min in the data set with anesthetized monkeys; 0.9 min in data set [1]; 0.5 min in data set [3] (cat); 0.5 min in data set [2] (setting [5]). For the same compound, the Onset with rabbits is 0.8 min; in the data set on anesthetized monkeys, 0.8 min; in data set [1], 0.65 min; in data set [3] (cat), 0.9 min; in data set [2] (rat) it was 0.65 min. Besides, the “VB (vagal block)” value came out at 42% in data set [1], 30% in data set [3] (in vivo) and 32% in data set [2] (setting [6]).

Consider `COc1ccc(CC2c3cc(OC)c(OC)cc3CC[N+]2(C)CCC(=O)OCCCCCOC(=O)CC[N+]2(C)CCc3cc(OC)c(OC)cc3C2Cc2ccc(OC)c(OC)c2)cc1OC` (stereo not shown) [Atracurium, reference compound], for which the ED50 with rabbits (Oryctolagus cuniculus, read-out: ED50) was determined as 0.03 mg/kg; with anesthetized monkeys (Primates, read-out: ED50) it was 0.186 mg/kg; in data set [3] (Felis catus, iv), 0.068 mg/kg; in data set [2] (Rattus norvegicus, iv), 0.32 mg/kg. Moreover, the “ΔBP (change in arterial blood pressure)” value is on record as 0% in the data set with rabbits (setting [7]); 0% in the data set with anesthetized monkeys (setting [7]); 0% in data set [3] (cat, in vivo); 0% in data set [2] (male, rat, in vivo). Also, the “ΔH (change in heart rate)” value in the data set with rabbits (setting [7]) came out at 0%; in the data set on anesthetized monkeys (setting [7]), 0%; in data set [3] (cat, in vivo) it was 0%; in data set [2] (male, rat, in vivo), 0%. For the same compound, the “RI (recovery index)” value was 5.7 min with rabbits; 7.5 min in the data set with anesthetized monkeys; 4.8 min in data set [3] (cat); 2.9 min in data set [2] (rat, in vivo). The Onset stood at 2.7 min in the data set on rabbits, 3 min in the data set with anesthetized monkeys, 2.7 min in data set [3] (cat) and 1.5 min in data set [2] (rat). Besides, the “VB (vagal block)” value in data set [2] (male, rat, in vivo) is on record as 0%.

`C[N+]1(C)[C@@H]2CC[C@H]1C[C@@H](OC(=O)CCCCCCCCC(=O)O[C@H]1C[C@H]3CC[C@@H](C1)[N+]3(C)C)C2.[I-].[I-]` [bis[N-methyltropanium-3α-yl]sebacate diiodide, reference compound] displayed an ED50 in data set [3] (Felis catus, iv) of 0.125 mg/kg. Besides, in data set [3] (setting [8]), the “VB (vagal block)” value was found to be 100%, the “ΔBP (change in arterial blood pressure)” value was 0% and the “ΔH (change in heart rate)” value came out at 0%. Also, in data set [3] (cat), the “RI (recovery index)” value came out at 3.9 min and the Onset is 2.3 min.

For `C[N+]1(CC2CC2)[C@@H]2CC[C@H]1C[C@@H](OC(=O)CCCCCCC(=O)O[C@H]1C[C@H]3CC[C@@H](C1)[N+]3(C)CC1CC1)C2.[Br-].[Br-]` (stereo partly drawn) [bis[N-(cyclopropylmethyl)tropanium-3α-yl]suberate dibromide, reference compound], the ED50 in data set [3] (Felis catus, iv) came out at 0.155 mg/kg. In addition, in data set [3] (setting [8]), the “VB (vagal block)” value was 80%, the “ΔBP (change in arterial blood pressure)” value is recorded as 0% and the “ΔH (change in heart rate)” value was found to be 0%. In addition, in data set [3] (cat), the “RI (recovery index)” value stood at 9 min and the Onset amounted to 1.4 min.

For `CC(=O)Oc1ccc(C[N+]2(C)C3CCC2CC(OC(=O)C2C4C=CC(C4)C2C(=O)OC2CC4CCC(C2)[N+]4(C)Cc2ccc(OC(C)=O)c(OC(C)=O)c2)C3)cc1OC(C)=O.[Br-].[Br-]` (stereo not drawn) [bis[N-(3,4-diacetoxybenzyl)tropanium-3β-yl]trans-3,6-endomet] [bis[N-(3,4-diacetoxybenzyl)tropanium-3β-yl]trans-3,6-endomethylene-1,2,3,6-tetrahydrophthalate dibromide], the “ΔBP (change in arterial blood pressure)” value in the data set with rabbits (in vivo) is 0%; in data set [1] it was −5%; in data set [2] (setting [6]), 0%. Moreover, the “ΔH (change in heart rate)” value is 0% with rabbits (in vivo), −10% in data set [1] and 0% in data set [2] (setting [6]). Also, the ED50 worked out at 0.21 mg/kg in the data set on rabbits, 0.16 mg/kg in data set [1] and 0.258 mg/kg in data set [2] (setting [4]). In addition, the “RI (recovery index)” value in the data set with rabbits is 0.75 min; in data set [1], 2 min; in data set [2] (setting [5]), 0.5 min. Further, the Onset in the data set on rabbits is 0.8 min; in data set [1], 1.1 min; in data set [2] (rat), 0.68 min. In addition, the “VB (vagal block)” value in data set [1] was 100%; in data set [2] (setting [6]), 45%.
